For assay [1], the target named is T1, 5-LO (Homo sapiens, UniProt P09917).
T1 construct: incubating a test compound with heparinised human blood; endogenous in cells; host or cells: blood cells in heparinised human whole blood
T1 sequence (P09917 1-674): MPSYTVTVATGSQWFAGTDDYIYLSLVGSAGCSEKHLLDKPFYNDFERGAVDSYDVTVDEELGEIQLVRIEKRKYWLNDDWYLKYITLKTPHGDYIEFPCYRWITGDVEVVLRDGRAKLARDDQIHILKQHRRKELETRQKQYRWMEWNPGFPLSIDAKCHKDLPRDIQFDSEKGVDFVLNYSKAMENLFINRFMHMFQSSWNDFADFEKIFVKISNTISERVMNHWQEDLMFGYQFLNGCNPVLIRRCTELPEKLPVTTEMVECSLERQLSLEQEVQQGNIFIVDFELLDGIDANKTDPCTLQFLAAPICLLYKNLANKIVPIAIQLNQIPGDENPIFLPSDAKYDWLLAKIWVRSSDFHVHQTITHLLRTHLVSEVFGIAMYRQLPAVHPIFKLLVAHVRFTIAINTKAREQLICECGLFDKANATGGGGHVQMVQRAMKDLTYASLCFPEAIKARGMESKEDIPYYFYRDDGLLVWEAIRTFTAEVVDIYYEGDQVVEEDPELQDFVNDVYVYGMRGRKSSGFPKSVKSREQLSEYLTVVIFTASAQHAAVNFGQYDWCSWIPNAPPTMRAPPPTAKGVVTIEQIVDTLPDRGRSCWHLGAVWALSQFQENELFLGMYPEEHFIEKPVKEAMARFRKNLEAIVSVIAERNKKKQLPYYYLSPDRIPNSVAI
Kind of assay: Test a) in vitro inhibition of LTB4 formation in heparinised human blood challenged with A23187 (radioimmunoassay). It is filed as cell-based. On the procedure: a) An in vitro assay system involving incubating a test compound with heparinised human blood, prior to challenge with the calcium ionophore A23187 and then indirectly measuring the inhibitory effects on 5-LO by assaying the amount of LTB4 using specific radioimmunoassays described by Carey and Forder (Prostaglandins, Leukotrienes Med., 1986, 22, 57; Prostaglandins, 1984, 28, 666; Brit. J. Pharmacol., 1985, 84, 34P) which involve the use of a protein-LTB4 conjugate produced using the procedure of Young et alia (Prostaglandins, 1983, 26(4), 605-613). The effects of a test compound on the enzyme cyclooxygenase (which is involved in the alternative metabolic pathway for arachidonic acid and gives rise to prostaglandins, thromboxanes and related metabolites) may be measured at the same time using the specific radioimmunoassay for thromboxane B2 (TxB2) described by Carey and Forder (see above). This test provides an indication of the effects of a test compound against 5-LO and also cyclooxygenase in the presence of blood cells and proteins. It permits the selectivity of the inhibitory effect on 5-LO or cyclooxygenase to be assessed.

For assay [2], the target named is T2, 5-LO (Rattus norvegicus, UniProt P12527).
T2 construct: an air pouch generated within the subcutaneous tissue of the back of male rats; endogenous in cells; host or cells: cells of the zymosan-inflamed air pouch of live male rats
T2 sequence (P12527 1-673): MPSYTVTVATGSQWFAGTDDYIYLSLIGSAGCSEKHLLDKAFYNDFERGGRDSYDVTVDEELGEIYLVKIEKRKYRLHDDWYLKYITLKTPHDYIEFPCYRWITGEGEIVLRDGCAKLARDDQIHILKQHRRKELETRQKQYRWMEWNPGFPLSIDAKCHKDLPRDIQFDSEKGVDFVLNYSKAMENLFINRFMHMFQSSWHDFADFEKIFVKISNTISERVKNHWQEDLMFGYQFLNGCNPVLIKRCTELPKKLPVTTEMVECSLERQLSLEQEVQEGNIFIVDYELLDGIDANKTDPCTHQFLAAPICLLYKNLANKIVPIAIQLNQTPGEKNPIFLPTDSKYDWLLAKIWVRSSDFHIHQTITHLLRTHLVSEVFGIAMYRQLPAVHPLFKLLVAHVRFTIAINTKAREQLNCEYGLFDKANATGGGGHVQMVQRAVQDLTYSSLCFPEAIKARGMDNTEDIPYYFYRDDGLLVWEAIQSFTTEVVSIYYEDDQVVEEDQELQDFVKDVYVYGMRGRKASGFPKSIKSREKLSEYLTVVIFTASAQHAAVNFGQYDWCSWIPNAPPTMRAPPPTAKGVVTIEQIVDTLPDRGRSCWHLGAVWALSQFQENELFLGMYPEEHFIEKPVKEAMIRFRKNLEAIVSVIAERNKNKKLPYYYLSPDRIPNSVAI
Kind of assay: Test c) in vivo zymosan-induced LTB4 liberation in rat air pouch, oral compound. As to conditions: 3 h; test c). On the procedure:
c) An in vivo system involving measuring the effects of a test compound administered orally against the liberation of LTB4 induced by zymosan within an air pouch generated within the subcutaneous tissue of the back of male rats. The rats are anaesthetised and air pouches are formed by the injection of sterile air (20 ml). A further injection of air (10 ml) is similarly given after 3 days. At 6 days after the initial air injection the test compound is administered (usually orally as the suspension produced when a solution of the test compound in dimethylsulphoxide is added to hydroxypropylmethylcellulose), followed by the intrapouch injection of zymosan (1 ml of a 1% suspension in physiological saline). After 3 hours the rats are killed, the air pouches are lavaged with physiological saline, and the specific radioimmunoassay described above is used to assay LTB4 in the washings. This test provides an indication of inhibitory effects against 5-LO in an inflammatory milieu.

In turn, `COC1(c2cccc(Sc3ccc(NS(C)(=O)=O)c(Cl)c3)c2)CCOCC1` [N-{2-chloro-4-[3-(4-methoxytetrahydropyran-4-yl)phenylthio]phenyl)-methanesulphonamide] gave an IC50 against 5-LO [1] of 1000 nM. Moreover, the ED50 at 5-LO [2] worked out at 1.5 mg/kg.
The matching figures for `COC1(c2cccc(Sc3ccc(N(C)S(C)(=O)=O)cc3Cl)c2)CCOCC1` [N-{3-chloro-4-[3-(4-methoxytetrahydropyran-4-yl)phenylthio]phenyl}-N-methylmethanesulphonamide]: 90 nM and 1 mg/kg.

The values are drawn from US5236948A, “Sulphonamide derivatives” (Imperial Chemical Industries PLC, priority 1991, dated 1993).
